Source: article PMC3161826 (Journal of nuclear medicine : official publication, Society …, 2010)
“And” between values parts separate entries of the source, which are not always exact repeats. Equal entries are not always repeated. Where two headings read alike, the source gives them in different places.

Key:
[1] = target: T1, 18-kDa translocator protein (TSPO) (Homo sapiens, UniProt P30536); experiment: Competition binding assay with 3H-PK11195 in human brain tissue membranes
[2] = tested on: 18-kDa translocator protein (TSPO); experiment: as above; settings: for Ki ratio of LAB to HAB / Ki: brain tissue donors B1–B15; for Ki: read-out: Ki, MABs (single-site model), mixed-affinity binders, mean ± SEM
[3] = target: T1, 18-kDa translocator protein (TSPO); format: binding; settings: read-out: Ki, HABs; platelets, healthy volunteers P1–P13; single class of high-affinity sites, 9 of 13
Target sequence in this assay (P30536 2-169): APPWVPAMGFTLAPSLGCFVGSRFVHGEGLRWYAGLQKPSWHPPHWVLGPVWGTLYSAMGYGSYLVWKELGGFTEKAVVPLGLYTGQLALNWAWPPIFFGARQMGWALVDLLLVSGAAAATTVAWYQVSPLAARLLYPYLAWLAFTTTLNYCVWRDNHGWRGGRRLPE

[4] = tested on: 18-kDa translocator protein (TSPO); format: binding, human; settings: platelets, healthy volunteers
[5] = target: T1, 18-kDa translocator protein (TSPO); format: binding; settings: for Ki: unlabeled PBR28 50 nM in each well
[6] = target: 18-kDa translocator protein (TSPO); settings: brain tissue donors B1–B15; ref Owen et al. ([6]); cited from earlier work
[7] = read-out: Ki, HABs, high-affinity binders, brain tissue donors B1–B15, mean ± SEM
[8] = read-out: Ki, LABs, low-affinity binders, brain tissue donors B1–B15, mean ± SEM

Difference in affinity between HABs and LABs ([2]; brain tissue)	SMILES	Ki [1, 7]	Ki [1, 8]	Ki ratio of LAB to HAB [2]	Ki [2]	further results
–	COc1ccccc1CN(C(C)=O)c1cnccc1Oc1ccccc1 [PBR28, N-{[2-(methyloxy)phenyl]methyl}-N-[4-(phenyloxy)-3-pyridinyl]acetamide]	–	–	–	–	Ki ([1]; Ki, LABs, brain tissue, donors with no history of neurologic disease (B14–B33), single class of low-affinity receptors, 4 of 20): 237 ± 35 nM; Ki ([1]; read-out: Ki, HABs, brain tissue, donors with no history of neurologic disease (B14–B33), single class of high-affinity receptors, 9 of 20): 2.9 ± 0.26 nM; Mean fraction of high-affinity sites in MABs ([2]; brain tissue, donors with no history of neurologic disease): 58% ± 6.6; Fraction of high-affinity sites in MABs, range of values ([2]; brain tissue, range across MAB subjects): 38% to 83; Ki [3]: 3.1 ± 0.57 nM; Mean fraction of high-affinity sites in MABs [4]: 63% ± 9.8; Reduction (%) in specific signal after block with PBR28 (50 nM), HABs ([5]; PBR28 50 nM, 3H-PK11195 specific signal, HABs, 60 min, 0.05 µM): 70% and 69.0 ± 4.6 (n = 4) %; Reduction (%) in specific signal after block with PBR28 (50 nM), LABs ([5]; PBR28 50 nM, 3H-PK11195 specific signal, LABs): 21% and 21.2 ± 4.8 (n = 4) %; Occupancy of binding sites in HABs ([5]; PBR28 at 50 nM, expected occupancy): approximately 94%; receptor occupancy at 0.05 µM ([5]; read-out: Occupancy of binding sites in LABs): ~21%; Ki ratio of LAB to HAB [6]: 55
~ 4 fold and < 5 fold	CCN(CC)C(=O)Cc1c(-c2ccc(OC)cc2)nn2c(C)cc(C)nc12 [DPA713]	–	–	–	–	–
~ 4 fold and ~ 5 fold and < 5 fold	COc1ccc(OC)c(CN(C(C)=O)c2cc(F)ccc2Oc2ccccc2)c1 [DAA1106]	2.8 ± 0.3 nM	13.1 ± 1.3 nM	4.7	4.8 ± 0.4 nM	–
–	COc1ccc(OC)c(CN(C(=O)CF)c2ccccc2Oc2ccccc2)c1 [PBR06]	8.6 ± 2 nM	149 ± 46.6 nM	17	–	–

SMILES	Difference in affinity between HABs and LABs ([2]; brain tissue)	Ki [1, 7]	Ki [1, 8]	Ki ratio of LAB to HAB [2]	Ki [2]	further results
CCN(CC)C(=O)Cc1c(-c2ccc(OCCCF)cc2)nc2ccc(Cl)cn12 [PBR111]	~ 4 fold and < 5 fold	15.6 ± 3.7 nM	61.8 ± 10.7 nM	4.0	30.3 ± 4.1 nM	Ki ([5]; read-out: Ki after block with PBR28 (50 nM), LABs, low-affinity binders): 51.7 ± 12.2 nM; Ki ([5]; read-out: Ki after block with PBR28 (50 nM), MABs, mixed-affinity binders): 54.4 ± 5.3 nM
